From patent publication US20260297085A1, “1 H-PYRROLO[2,3-B]PYRIDIN-4-YL]-2-OXOPYRROLIDINE-3-CARBONITRILE DERIVATIVES AS TYROSINE KINASE 2 (TYK2) INHIBITORS FOR THE TREATMENT OF INFLAMMATORY DISEASES” (BIOGEN MA INC., priority 2023, published 2026)

Assays:
[1] = molecular target: T1, human JAK2 kinase domain (JH1) (Homo sapiens, UniProt O60674); test: JH1 biochemical assay for JAK2 (ADP-Glo kinase assay, recombinant JH1 catalytic domain, JAK3-974 peptide, 15 μM ATP)
T1 construct: recombinantly generated catalytic kinase (also known as JH1) domain of human JAK1, JAK2, JAK3 and TYK2
T1 sequence (O60674 849-1124 limits assumed): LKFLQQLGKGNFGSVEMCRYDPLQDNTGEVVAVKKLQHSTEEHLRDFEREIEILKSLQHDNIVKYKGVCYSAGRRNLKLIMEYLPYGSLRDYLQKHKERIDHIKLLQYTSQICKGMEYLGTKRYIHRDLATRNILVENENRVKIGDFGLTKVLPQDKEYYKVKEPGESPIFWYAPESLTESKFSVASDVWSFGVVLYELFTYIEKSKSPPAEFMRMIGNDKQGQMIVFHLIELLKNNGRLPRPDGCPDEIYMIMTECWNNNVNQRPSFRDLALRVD
In short: (§1)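 Reactions contain 50 μM peptide and run 100 minutes, with enzyme at 4, 0.2, 0.3 and 2 nM for JAK1, JAK2, JAK3 and TYK2. Generated ADP is read by luminescence; IC50 derives from normalized dose-response curves.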

[2] = molecular target: T2, human JAK3 kinase domain (JH1) (Homo sapiens, UniProt P52333); test: JH1 biochemical assay for JAK3 (ADP-Glo kinase assay, recombinant JH1 catalytic domain, JAK3-974 peptide, 4 μM ATP)
T2 construct: recombinantly generated catalytic kinase (also known as JH1) domain of human JAK1, JAK2, JAK3 and TYK2
T2 sequence (P52333 822-1111 limits assumed): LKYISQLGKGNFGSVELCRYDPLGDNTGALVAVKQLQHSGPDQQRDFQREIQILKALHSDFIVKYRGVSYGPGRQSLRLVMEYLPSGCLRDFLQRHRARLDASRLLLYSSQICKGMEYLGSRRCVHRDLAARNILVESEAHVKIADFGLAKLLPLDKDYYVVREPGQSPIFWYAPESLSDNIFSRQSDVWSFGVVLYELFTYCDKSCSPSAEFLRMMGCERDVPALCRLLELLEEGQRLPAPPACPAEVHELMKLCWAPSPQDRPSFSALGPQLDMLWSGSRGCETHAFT
In short: as §1

[3] = molecular target: T3, human JAK1 kinase domain (JH1) (Homo sapiens, UniProt P23458); test: JH1 biochemical assay for JAK1 (ADP-Glo kinase assay, recombinant JH1 catalytic domain, JAK3-342 peptide, 35 μM ATP)
T3 construct: recombinantly generated catalytic kinase (also known as JH1) domain of human JAK1, JAK2, JAK3 and TYK2
T3 sequence (P23458 875-1153 limits assumed): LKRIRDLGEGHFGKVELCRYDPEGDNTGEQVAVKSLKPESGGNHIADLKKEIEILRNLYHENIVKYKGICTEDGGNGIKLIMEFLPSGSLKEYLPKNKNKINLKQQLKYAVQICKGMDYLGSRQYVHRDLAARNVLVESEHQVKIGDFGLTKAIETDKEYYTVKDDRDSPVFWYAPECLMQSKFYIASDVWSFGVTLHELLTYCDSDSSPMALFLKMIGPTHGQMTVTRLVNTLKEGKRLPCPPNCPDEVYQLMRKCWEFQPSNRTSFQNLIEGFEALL
In short: as §1

[4] = molecular target: T4, human TYK2 kinase domain (JH1) (Homo sapiens, UniProt P29597); test: JH1 biochemical assay for TYK2 (ADP-Glo kinase assay, recombinant JH1 catalytic domain, JAK3-974 peptide, 10 μM ATP)
T4 construct: recombinantly generated catalytic kinase (also known as JH1) domain of human JAK1, JAK2, JAK3 and TYK2
T4 sequence (P29597 897-1176 limits assumed): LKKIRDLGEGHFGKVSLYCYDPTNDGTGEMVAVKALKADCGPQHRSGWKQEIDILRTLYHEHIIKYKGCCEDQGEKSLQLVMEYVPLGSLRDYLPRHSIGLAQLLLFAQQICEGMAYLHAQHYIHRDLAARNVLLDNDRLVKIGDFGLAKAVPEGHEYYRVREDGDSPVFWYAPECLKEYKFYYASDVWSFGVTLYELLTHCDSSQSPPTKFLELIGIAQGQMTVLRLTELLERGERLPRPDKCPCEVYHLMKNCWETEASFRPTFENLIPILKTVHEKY
In short: as §1

[5] = molecular target: Tyk2 kinase activity on STAT4 in NK92 cells (Homo sapiens, UniProt P29597); test: pSTAT4 cell assay (MSD; NK92 cells, 30 ng/mL IL2 stimulation); assay type: cell-based; conditions: 30 ng/mL IL2, 15 minutes
Chain of Tyk2 kinase activity on STAT4 in NK92 cells (P29597 whole entry): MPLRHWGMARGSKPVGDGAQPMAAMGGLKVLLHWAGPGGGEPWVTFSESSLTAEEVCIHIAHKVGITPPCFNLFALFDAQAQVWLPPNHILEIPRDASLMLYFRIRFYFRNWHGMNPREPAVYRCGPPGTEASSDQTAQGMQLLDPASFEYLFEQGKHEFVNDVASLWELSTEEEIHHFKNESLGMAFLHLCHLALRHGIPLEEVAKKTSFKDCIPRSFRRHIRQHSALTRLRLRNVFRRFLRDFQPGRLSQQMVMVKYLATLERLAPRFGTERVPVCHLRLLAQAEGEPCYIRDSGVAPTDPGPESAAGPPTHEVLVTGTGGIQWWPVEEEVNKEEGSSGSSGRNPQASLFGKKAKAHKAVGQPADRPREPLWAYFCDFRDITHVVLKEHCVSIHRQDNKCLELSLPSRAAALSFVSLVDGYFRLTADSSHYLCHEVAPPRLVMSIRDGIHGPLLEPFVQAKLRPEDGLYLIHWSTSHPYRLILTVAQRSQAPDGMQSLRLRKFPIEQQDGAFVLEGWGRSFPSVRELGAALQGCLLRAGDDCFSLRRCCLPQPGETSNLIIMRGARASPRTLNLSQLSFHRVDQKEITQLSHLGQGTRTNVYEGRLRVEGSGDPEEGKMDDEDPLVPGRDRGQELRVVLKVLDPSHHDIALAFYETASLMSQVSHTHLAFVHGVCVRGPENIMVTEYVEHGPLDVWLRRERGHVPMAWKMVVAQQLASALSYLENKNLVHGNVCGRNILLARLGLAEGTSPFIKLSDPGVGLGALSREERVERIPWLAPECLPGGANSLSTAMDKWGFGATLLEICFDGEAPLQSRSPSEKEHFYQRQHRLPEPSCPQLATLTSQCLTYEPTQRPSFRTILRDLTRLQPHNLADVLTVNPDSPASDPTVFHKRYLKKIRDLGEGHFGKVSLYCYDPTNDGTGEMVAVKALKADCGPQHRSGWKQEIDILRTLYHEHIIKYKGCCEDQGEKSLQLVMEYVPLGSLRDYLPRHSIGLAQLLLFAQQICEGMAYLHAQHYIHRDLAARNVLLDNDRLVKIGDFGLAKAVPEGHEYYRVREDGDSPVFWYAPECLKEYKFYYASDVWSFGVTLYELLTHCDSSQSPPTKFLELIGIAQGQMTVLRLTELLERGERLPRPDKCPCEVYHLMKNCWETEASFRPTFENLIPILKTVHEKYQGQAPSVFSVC
In short: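 Read-out: phospho-STAT in NK92 lysates, MSD format, anti-STAT4 antibodies. Cells were serum-starved, given compound for 1 hr (10 μM top, four-fold, 10 points) and IL2-stimulated (30 ng/mL, 15 min). Normalized percent activity vs log concentration, 4-parameter logistic fit gave IC50.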

[6] = molecular target: JAK2 kinase activity on STAT5 in TF1 cells (Homo sapiens, UniProt O60674); test: pSTAT5 cell assay (MSD; TF1 cells, 30 ng/mL IL-3 stimulation); assay type: cell-based; conditions: 30 ng/mL IL-3, 15 minutes
Chain of JAK2 kinase activity on STAT5 in TF1 cells (O60674 whole entry): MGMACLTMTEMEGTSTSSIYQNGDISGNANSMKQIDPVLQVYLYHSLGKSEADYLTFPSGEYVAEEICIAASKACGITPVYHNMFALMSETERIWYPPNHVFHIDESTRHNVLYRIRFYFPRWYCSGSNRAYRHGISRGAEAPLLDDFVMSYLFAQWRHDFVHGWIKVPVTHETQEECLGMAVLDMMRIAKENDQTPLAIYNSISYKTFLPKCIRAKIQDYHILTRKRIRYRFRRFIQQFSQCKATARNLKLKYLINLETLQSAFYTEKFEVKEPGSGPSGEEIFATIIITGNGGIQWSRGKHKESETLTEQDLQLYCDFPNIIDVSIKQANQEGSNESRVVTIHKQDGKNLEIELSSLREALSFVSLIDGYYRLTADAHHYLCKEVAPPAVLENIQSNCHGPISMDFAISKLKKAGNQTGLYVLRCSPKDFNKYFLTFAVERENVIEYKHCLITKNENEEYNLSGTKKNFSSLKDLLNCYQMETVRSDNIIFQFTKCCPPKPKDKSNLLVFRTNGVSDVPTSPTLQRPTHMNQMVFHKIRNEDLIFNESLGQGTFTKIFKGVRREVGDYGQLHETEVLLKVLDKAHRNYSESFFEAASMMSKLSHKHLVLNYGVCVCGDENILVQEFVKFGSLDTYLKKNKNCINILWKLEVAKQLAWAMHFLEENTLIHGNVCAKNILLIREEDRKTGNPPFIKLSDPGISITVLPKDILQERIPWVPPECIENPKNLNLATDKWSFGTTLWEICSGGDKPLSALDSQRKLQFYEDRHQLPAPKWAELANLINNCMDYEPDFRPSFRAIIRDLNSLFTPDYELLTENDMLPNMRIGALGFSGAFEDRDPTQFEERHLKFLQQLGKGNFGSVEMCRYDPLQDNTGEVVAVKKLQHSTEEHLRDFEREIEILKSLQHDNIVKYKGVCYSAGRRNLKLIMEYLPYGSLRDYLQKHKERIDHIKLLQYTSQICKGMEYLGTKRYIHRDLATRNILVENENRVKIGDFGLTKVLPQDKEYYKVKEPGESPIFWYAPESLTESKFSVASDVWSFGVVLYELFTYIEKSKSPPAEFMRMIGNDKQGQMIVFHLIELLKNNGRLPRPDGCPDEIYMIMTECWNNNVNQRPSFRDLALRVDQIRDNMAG
In short: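 IC50 from a 4-parameter logistic fit of normalized pSTAT5 signal, measured by MSD in lysates of TF1 cells. Cells were serum-starved, exposed to compound for 1 h (top concentration 10 μM, four-fold, 10 points), then given IL-3 at 30 ng/mL for 15 min.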

[7] = molecular target: JAK1 kinase activity on STAT3 in TF1 cells (Homo sapiens, UniProt P23458); test: pSTAT3 cell assay (MSD; TF1 cells, 30 ng/mL IL-6 stimulation); assay type: cell-based; conditions: 30 ng/mL IL-6, 15 minutes
Chain of JAK1 kinase activity on STAT3 in TF1 cells (P23458 whole entry): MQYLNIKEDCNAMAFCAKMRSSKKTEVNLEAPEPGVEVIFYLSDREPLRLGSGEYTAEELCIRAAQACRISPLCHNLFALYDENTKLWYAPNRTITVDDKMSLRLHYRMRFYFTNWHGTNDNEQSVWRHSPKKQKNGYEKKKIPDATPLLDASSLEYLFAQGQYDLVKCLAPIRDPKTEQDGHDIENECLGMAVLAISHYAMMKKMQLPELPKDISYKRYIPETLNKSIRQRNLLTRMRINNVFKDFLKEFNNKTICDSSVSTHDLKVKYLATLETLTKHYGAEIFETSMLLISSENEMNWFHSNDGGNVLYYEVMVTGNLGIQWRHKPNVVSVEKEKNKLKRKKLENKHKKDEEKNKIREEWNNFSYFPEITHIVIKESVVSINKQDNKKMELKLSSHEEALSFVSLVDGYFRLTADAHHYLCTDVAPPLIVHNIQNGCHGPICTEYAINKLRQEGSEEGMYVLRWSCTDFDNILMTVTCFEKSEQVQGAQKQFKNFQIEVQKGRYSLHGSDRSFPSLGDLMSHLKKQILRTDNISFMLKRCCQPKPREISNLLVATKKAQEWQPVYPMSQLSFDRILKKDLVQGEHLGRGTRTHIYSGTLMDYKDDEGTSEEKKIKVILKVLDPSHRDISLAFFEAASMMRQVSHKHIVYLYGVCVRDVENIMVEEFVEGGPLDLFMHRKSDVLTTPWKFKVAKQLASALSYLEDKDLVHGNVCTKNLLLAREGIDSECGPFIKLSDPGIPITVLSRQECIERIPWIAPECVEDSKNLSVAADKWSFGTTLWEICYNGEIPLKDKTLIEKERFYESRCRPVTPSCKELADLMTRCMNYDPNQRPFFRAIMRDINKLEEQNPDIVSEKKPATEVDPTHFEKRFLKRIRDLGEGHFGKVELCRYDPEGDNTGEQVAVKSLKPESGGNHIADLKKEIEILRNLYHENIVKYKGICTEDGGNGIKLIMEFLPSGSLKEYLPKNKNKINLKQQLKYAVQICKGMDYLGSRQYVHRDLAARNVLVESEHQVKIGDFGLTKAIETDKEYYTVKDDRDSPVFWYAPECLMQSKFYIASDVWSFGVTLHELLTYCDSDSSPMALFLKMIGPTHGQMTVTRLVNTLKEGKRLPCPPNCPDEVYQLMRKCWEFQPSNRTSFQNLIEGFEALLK
In short: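 IC50 values reflect 4-parameter logistic fits of normalized pSTAT3 signal, measured by MSD in lysed TF1 cells. Cells were serum-starved and treated with compound for 1 h (top concentration 10 μM) before a 15 min IL-6 challenge.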

| SMILES | IC50 ([1]; JH1 kinase domain, ADP-Glo) | IC50 ([2]; JH1 kinase domain, ADP-Glo) | IC50 ([3]; JH1 kinase domain, ADP-Glo) | IC50 ([4]; JH1 kinase domain, ADP-Glo) | IC50 [5] | IC50 [6] | IC50 [7] | IC50 ([1]; JAK2 JH1, ADP-Glo) | IC50 ([2]; JAK3 JH1, ADP-Glo) | IC50 ([3]; JAK1 JH1, ADP-Glo) | IC50 ([4]; TYK2 JH1, ADP-Glo) |
| --- | --- | --- | --- | --- | --- | --- | --- | --- | --- | --- | --- |
| C[C@@H]1CN(c2ccnn3cc(-c4ccnc(C(F)(F)F)c4)cc23)C(=O)[C@]1(C#N)C1CC1 [Example 69, (3R,4S)-3-cyclopropyl-4-methyl-2-oxo-1-(6-(2-(trifluoromethyl)pyridin-4-yl)pyrrolo[1,2-b]pyridazin-4-yl)pyrrolidine-3-carbonitrile] | 1000 to 5000 nM | 100 to 1000 nM | 100 to 1000 nM | 5 to 20 nM | > 100 nM | > 10000 nM | 5000 to 10000 nM |  |  |  |  |
| C[C@@H]1CN(c2ccnn3cc(-c4cnn(CC5(C#N)CC5)c4)cc23)C(=O)[C@]1(C#N)C1CC1 [Example 324, (3R,4S)-1-(6-(1-((1-cyanocyclopropyl)methyl)-1H-pyrazol-4-yl)pyrrolo[1,2-b]pyridazin-4-yl)-3-cyclopropyl-4-methyl-2-oxopyrrolidine-3-carbonitrile] |  |  |  |  | 50 to 100 nM | 100 to 1000 nM | 100 to 1000 nM | < 100 nM | < 100 nM | < 100 nM | < 5 nM |
| Cc1ccn(-c2cc3c(N4C[C@@H](C)[C@@](C#N)(C5CC5)C4=O)ccnn3c2)n1 [Example 334, (3R,4S)-3-cyclopropyl-4-methyl-1-(6-(3-methyl-1H-pyrazol-1-yl)pyrrolo[1,2-b]pyridazin-4-yl)-2-oxopyrrolidine-3-carbonitrile] |  |  |  |  | > 100 nM | > 10000 nM | > 10000 nM | 1000 to 5000 nM | 100 to 1000 nM | 1000 to 5000 nM | 20 to 50 nM |
| CC[C@@H]1CN(c2ccnn3cc(-c4cnn(C)c4)cc23)C(=O)[C@]1(C#N)C1CC1 [Example 23, (3R,4S)-3-cyclopropyl-4-ethyl-1-(6-(1-methyl-1H-pyrazol-4-yl)pyrrolo[1,2-b]pyridazin-4-yl)-2-oxopyrrolidine-3-carbonitrile] | 100 to 1000 nM | 100 to 1000 nM | 100 to 1000 nM | 5 to 20 nM | 50 to 100 nM | 5000 to 10000 nM | 1000 to 5000 nM |  |  |  |  |
| C[C@@H]1CN(c2ccnn3cc(-c4ccn(C)c(=O)c4)cc23)C(=O)[C@]1(C#N)C1CC1 [Example 79, (3R,4S)-3-cyclopropyl-4-methyl-1-(6-(1-methyl-2-oxo-1,2-dihydropyridin-4-yl)pyrrolo[1,2-b]pyridazin-4-yl)-2-oxopyrrolidine-3-carbonitrile] | 100 to 1000 nM | 100 to 1000 nM | 100 to 1000 nM | 5 to 20 nM | > 100 nM | > 10000 nM | > 10000 nM |  |  |  |  |
| C[C@@H]1CN(c2nc(-c3cnn(C4CCCCC4)c3)cn3ncc(F)c23)C(=O)[C@]1(C#N)C1CC1 [Example 219, (3R,4S)-1-(6-(1-cyclohexyl-1H-pyrazol-4-yl)-3-fluoropyrazolo[1,5-a]pyrazin-4-yl)-3-cyclopropyl-4-methyl-2-oxopyrrolidine-3-carbonitrile] |  |  |  |  | 50 to 100 nM | 100 to 1000 nM | 100 to 1000 nM | < 100 nM | < 100 nM | < 100 nM | < 5 nM |
| C[C@@H]1CN(c2nc(-c3cnn(C4(C)COC4)c3)cn3ncc(F)c23)C(=O)[C@]1(C#N)C1CC1 [Example 300, (3R,4S)-3-cyclopropyl-1-(3-fluoro-6-(1-(3-methyloxetan-3-yl)-1H-pyrazol-4-yl)pyrazolo[1,5-a]pyrazin-4-yl)-4-methyl-2-oxopyrrolidine-3-carbonitrile] |  |  |  |  | > 100 nM | 1000 to 5000 nM | 100 to 1000 nM | 100 to 1000 nM | < 100 nM | < 100 nM | < 5 nM |
